Measurements reported in patent US8143290B2, “Chemical compounds 572” (AstraZeneca AB, priority 2006, dated 2012).

Target: T1, recombinant human GR (Homo sapiens, UniProt P04150)
T1 construct: purchased Panvera/Invitrogen P2812 (kit P2893)
T1 sequence (P04150 1-777): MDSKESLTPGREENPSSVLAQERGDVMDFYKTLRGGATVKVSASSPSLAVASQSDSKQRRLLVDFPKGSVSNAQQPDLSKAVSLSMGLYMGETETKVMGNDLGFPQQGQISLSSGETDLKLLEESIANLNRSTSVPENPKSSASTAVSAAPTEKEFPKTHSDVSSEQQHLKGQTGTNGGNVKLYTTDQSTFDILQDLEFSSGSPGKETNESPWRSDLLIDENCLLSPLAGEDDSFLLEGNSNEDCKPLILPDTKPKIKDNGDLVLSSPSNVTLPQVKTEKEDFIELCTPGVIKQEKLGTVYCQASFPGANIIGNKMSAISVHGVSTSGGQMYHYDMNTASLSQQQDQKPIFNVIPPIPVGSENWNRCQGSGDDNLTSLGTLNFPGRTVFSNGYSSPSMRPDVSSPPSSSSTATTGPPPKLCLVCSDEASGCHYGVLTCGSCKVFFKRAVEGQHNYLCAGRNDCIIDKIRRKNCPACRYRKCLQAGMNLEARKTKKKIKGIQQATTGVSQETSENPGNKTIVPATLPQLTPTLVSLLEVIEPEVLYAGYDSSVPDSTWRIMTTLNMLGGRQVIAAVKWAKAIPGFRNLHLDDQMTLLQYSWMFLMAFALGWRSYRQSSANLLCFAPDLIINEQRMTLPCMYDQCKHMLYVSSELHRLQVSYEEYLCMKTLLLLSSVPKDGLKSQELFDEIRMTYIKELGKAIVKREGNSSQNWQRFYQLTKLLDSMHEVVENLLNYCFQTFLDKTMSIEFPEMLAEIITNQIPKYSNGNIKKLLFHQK
Assay: Human Glucocorticoid Receptor (GR) Assay, fluorescence polarization
Type: binding
Conditions: GS Red tracer, incubated 2 h at r.t., XLfit model 205, read-out: GRhuFL_FP_v2 Mean IC50
Method: Human Glucocorticoid Receptor (GR) Assay
The assay is based on a commercial kit from Panvera/Invitrogen (Part number P2893). The assay technology is fluorescence polarization. […] The GR and Stabilizing Peptide reagents are stored at −70° C. while the GS Red is stored at −20° C. Also included in the kit are 1M DTT (Panvera, Part number P2325, stored at −20° C.) and GR Screening buffer 10× (Panvera, Part number P2814, stored at −70° C. initially but once thawed stored at r.t.). Avoid repeated freeze/thaws for all reagents. The GR Screening buffer 10× comprises 100 mM potassium phosphate, 200 mM sodium molybdate, 1 mM EDTA and 20% DMSO.
0% control was 100% DMSO and 100% control was […] Dexamethasone. Background solution (8 μL; assay buffer 10×, Stabilizing Peptide, DTT and ice cold MQ water) was added to the background wells. GS Red solution (7 μL; assay buffer 10×, Stabilizing Peptide, DTT, GS Red and ice cold water) was added to all wells except background wells. GR solution (7 μL; assay buffer 10×, Stabilizing Peptide, DTT, GR and ice cold water) was added to all wells. The plate was sealed and incubated in a dark at r.t. for 2 h.

Row | SMILES | IC50 [nM]
1 | COc1cccc([C@@H](Oc2ccc3c(cnn3-c3ccc(F)cc3)c2)[C@H](C)NC(=O)C(C)C)c1 [Example 55, N-[(1R,2S)-1-[1-(4-fluorophenyl)indazol-5-yl]oxy-1-(3-methoxyphenyl)propan-2-yl]-2-methyl-propanamide] | 3.3
2 | COc1cccc([C@@H](Oc2ccc3c(cnn3-c3ccc(F)cc3)c2)[C@H](C)NC(=O)C2CCCC2)c1 [Example 56, N-[(1R,2S)-1-[1-(4-fluorophenyl)indazol-5-yl]oxy-1-(3-methoxyphenyl)propan-2-yl]cyclopentanecarboxamide] | 4.4
3 | COc1cccc([C@@H](Oc2ccc3c(cnn3-c3ccc(F)cc3)c2)[C@H](C)NC(=O)[C@@H](C)O)c1 [Example 57, (2R)-N-[(1R,2S)-1-[1-(4-fluorophenyl)indazol-5-yl]oxy-1-(3-methoxyphenyl)propan-2-yl]-2-hydroxy-propanamide] | 4.1
4 | COc1cccc([C@@H](Oc2ccc3c(cnn3-c3ccc(F)cc3)c2)[C@H](C)NC(=O)[C@H](C)O)c1 [Example 58, (2S)-N-[(1R,2S)-1-[1-(4-fluorophenyl)indazol-5-yl]oxy-1-(3-methoxyphenyl)propan-2-yl]-2-hydroxy-propanamide] | 2.7
5 | COCC(=O)N[C@@H](C)[C@H](Oc1ccc2c(cnn2-c2ccc(F)cc2)c1)c1ccc(C(F)(F)F)cc1 [Example 59, N-[(1R,2S)-1-[1-(4-fluorophenyl)indazol-5-yl]oxy-1-[4-(trifluoromethyl)phenyl]propan-2-yl]-2-methoxy-acetamide] | 3.3
6 | C[C@H](NC(=O)CO)[C@H](Oc1ccc2c(cnn2-c2ccc(F)cc2)c1)c1ccc(C(F)(F)F)cc1 [Example 60, N-[(1R,2S)-1-[1-(4-fluorophenyl)indazol-5-yl]oxy-1-[4-(trifluoromethyl)phenyl]propan-2-yl]-2-hydroxy-acetamide] | 3.3
7 | CCC(=O)N[C@@H](C)[C@H](Oc1ccc2c(cnn2-c2ccc(F)cc2)c1)c1ccc(C(F)(F)F)cc1 [Example 61, N-[(1R,2S)-1-[1-(4-fluorophenyl)indazol-5-yl]oxy-1-[4-(trifluoromethyl)phenyl]propan-2-yl]propanamide] | 3.3
8 | Cc1cc2c(cnn2-c2ccc(F)cc2)cc1O[C@H](c1ccccc1)[C@H](C)NC(=O)C(F)(F)F [Example 62, 2,2,2-Trifluoro-N-[(1R,2S)-1-[1-(4-fluorophenyl)-6-methyl-indazol-5-yl]oxy-1-phenyl-propan-2-yl]acetamide] | 3.5
9 | Cc1cc2c(cnn2-c2ccc(F)cc2)cc1O[C@H](c1ccccc1)[C@H](C)NC(=O)C(C)(C)C [Example 63, N-[(1R,2S)-1-[1-(4-Fluorophenyl)-6-methyl-indazol-5-yl]oxy-1-phenyl-propan-2-yl]-2,2-dimethyl-propanamide] | 4.4
10 | Cc1cc2c(cnn2-c2ccc(F)cc2)cc1O[C@H](c1ccccc1)[C@H](C)NC(=O)CO [Example 64, N-[(1R,2S)-1-[1-(4-Fluorophenyl)-6-methyl-indazol-5-yl]oxy-1-phenyl-propan-2-yl]-2-hydroxy-acetamide] | 3.9
11 | COc1cccc([C@@H](Oc2cc3cnn(-c4ccc(F)cc4)c3cc2C)[C@H](C)NC(=O)C(F)(F)F)c1 [Example 65, 2,2,2-Trifluoro-N-[(1R,2S)-1-[1-(4-fluorophenyl)-6-methyl-indazol-5-yl]oxy-1-(3-methoxyphenyl)propan-2-yl]acetamide] | 3.8
12 | COc1cccc([C@@H](Oc2cc3cnn(-c4ccc(F)cc4)c3cc2C)[C@H](C)NC(=O)C(C)(C)C)c1 [Example 66, N-[(1R,2S)-1-[1-(4-Fluorophenyl)-6-methyl-indazol-5-yl]oxy-1-(3-methoxyphenyl)propan-2-yl]-2,2-dimethyl-propanamide] | 4.2
13 | COc1cccc([C@@H](Oc2cc3cnn(-c4ccc(F)cc4)c3cc2C)[C@H](C)NC(=O)CO)c1 [Example 67, N-[(1R,2S)-1-[1-(4-Fluorophenyl)-6-methyl-indazol-5-yl]oxy-1-(3-methoxyphenyl)propan-2-yl]-2-hydroxy-acetamide] | 4.1
14 | COCCOCC(=O)N[C@@H](C)[C@H](Oc1ccc2c(cnn2-c2ccc(F)cc2)c1)c1cccc(OC)c1 [Example 71, N-[(1R,2S)-1-[1-(4-Fluorophenyl)indazol-5-yl]oxy-1-(3-methoxyphenyl)propan-2-yl]-2-(2-methoxyethoxy)acetamide] | 4.6

Next, values leading:

Row | IC50 [nM] | SMILES
15 | 3.7 | C[C@H](NC(=O)C(F)(F)F)[C@@H](Cc1ccccc1)Oc1ccc2c(cnn2-c2ccc(F)cc2)c1 [Example 72, 2,2,2-Trifluoro-N-[(2S,3R)-3-[1-(4-fluorophenyl)indazol-5-yl]oxy-4-phenyl-butan-2-yl]acetamide]
16 | 5.1 | C[C@H](NC(=O)C(C)(C)C)[C@@H](Cc1ccccc1)Oc1ccc2c(cnn2-c2ccc(F)cc2)c1 [Example 73, N-[(2S,3R)-3-[1-(4-Fluorophenyl)indazol-5-yl]oxy-4-phenyl-butan-2-yl]-2,2-dimethyl-propanamide]
17 | 3.7 | C[C@H](NC(=O)CO)[C@@H](Cc1ccccc1)Oc1ccc2c(cnn2-c2ccc(F)cc2)c1 [Example 74, N-[(2S,3R)-3-[1-(4-Fluorophenyl)indazol-5-yl]oxy-4-phenyl-butan-2-yl]-2-hydroxy-acetamide]
18 | 5.3 | COc1cccc([C@@H](Oc2ccc3c(cnn3-c3ccc(F)cc3)c2)[C@H](C)NC(=O)C(=O)OC(C)(C)C)c1 [Example 75, tert-Butyl [(1R,2S)-1-[1-(4-fluorophenyl)indazol-5-yl]oxy-1-(3-methoxyphenyl)propan-2-yl]carbamoylformate]
19 | 2.2 | COc1cccc([C@@H](Oc2ccc3c(cnn3-c3ccc(F)cc3)c2)[C@H](C)NC(=O)C(N)=O)c1 [Example 76, N-[(1R,2S)-1-[1-(4-Fluorophenyl)indazol-5-yl]oxy-1-(3-methoxyphenyl)propan-2-yl]oxamide]
20 | 2.6 | COc1cccc([C@@H](Oc2ccc3c(cnn3-c3ccc(F)cc3)c2)[C@H](C)NC(=O)C(=O)OC(C)C)c1 [Example 77, Propan-2-yl [(1R,2S)-1-[1-(4-fluorophenyl)indazol-5-yl]oxy-1-(3-methoxyphenyl)propan-2-yl]carbamoylformate]
21 | 3.2 | CCOC(=O)C(=O)N[C@@H](C)[C@H](Oc1ccc2c(cnn2-c2ccc(F)cc2)c1)c1cccc(OC)c1 [Example 78, Ethyl [(1R,2S)-1-[1-(4-fluorophenyl)indazol-5-yl]oxy-1-(3-methoxyphenyl)propan-2-yl]carbamoylformate]
22 | 2.6 | CNC(=O)C(=O)N[C@@H](C)[C@H](Oc1ccc2c(cnn2-c2ccc(F)cc2)c1)c1cccc(OC)c1 [Example 79, N-[(1R,2S)-1-[1-(4-Fluorophenyl)indazol-5-yl]oxy-1-(3-methoxyphenyl)propan-2-yl]-N′-methyl-oxamide]
23 | 3.7 | COc1cccc([C@@H](Oc2ccc3c(cnn3-c3ccc(F)cc3)c2)[C@H](C)NC(=O)C(=O)N(C)C)c1 [Example 80, N-[(1R,2S)-1-[1-(4-Fluorophenyl)indazol-5-yl]oxy-1-(3-methoxyphenyl)propan-2-yl]-N′,N′-dimethyl-oxamide]
24 | 5.3 | COc1cccc([C@@H](Oc2ccc3c(cnn3-c3ccc(F)cc3)c2)[C@H](C)NC(=O)C(=O)NC(C)(C)C)c1 [Example 82, N-[(1R,2S)-1-[1-(4-Fluorophenyl)indazol-5-yl]oxy-1-(3-methoxyphenyl)propan-2-yl]-N′-tert-butyl-oxamide]
25 | 5.8 | COc1cccc([C@@H](Oc2ccc3c(cnn3-c3ccc(F)cc3)c2)[C@H](C)NC(=O)c2ccc(C(F)(F)F)cc2)c1 [Example 83, N-((1R,2S)-1-(1-(4-fluorophenyl)-1H-indazol-5-yloxy)-1-(3-methoxyphenyl)propan-2-yl)-4-(trifluoromethyl)benzamide]
26 | 2.3 | COc1cccc([C@@H](Oc2ccc3c(cnn3-c3ccc(F)cc3)c2)[C@H](C)NC(=O)c2ncco2)c1 [Example 84, N-((1R,2S)-1-(1-(4-fluorophenyl)-1H-indazol-5-yloxy)-1-(3-methoxyphenyl)propan-2-yl)oxazole-2-carboxamide]
